Laboratory results reported in US9701603B2, “Strepsesquitriol, preparation method thereof, and application thereof” (SOUTH CHINA SEA INSTITUTE OF OCEANOLOGY, CHINESE ACADEMY OF …, priority 2013, dated 2017).

Assays:
RAW264.7 cells = test: Cytotoxic activity to RAW264.7 cells; assay type: cell-based; details: concentration 100 μM
LPS-induced TNFα = test: Inhibition of the formation of LPS-induced TNFα in RAW264.7 macrophages; assay type: cell-based
Description: As for determination of inhibitory activity of Strepsesquitriol on the formation of lipopolysaccharide (LPS)-induced TNFα in RAW264.7 macrophages, please refer to the references (Fan, S. Y.; Zeng, H. W.; Pei, Y. H.; Li. L.; Ye, J.; Pan, Y. X.; Zhang, J. G.; Yuan, X.; Zhang, W. D. The anti-inflammatory activities of an extract and compounds isolated from Platycladus orientalis (Linnaeus) Franco in vitro and ex vivo J Ethnopharmacol 2012, 141, 647-652) ENREF 3.

With `C[C@H]1C[C@@H](O)[C@]23C[C@H](CC[C@]12O)C(C)(C)[C@]3(C)O` [Strepsesquitriol A, (1R,2R,4S,5S,8S,10S)-4,9,9,10-tetramethyl-2,5,10-trihydroxyltricyclo[6.2.1.0^1,5]undecane] the cytotoxic activity (RAW264.7 cells) was “no cytotoxic activity”, the inhibition at 3.6 µM (LPS-induced TNFα; Mus musculus, concentration 3.6 μM, read-out: Inhibition rate (%)) was 3.4 ± 2.8% and the inhibition at 11 µM (LPS-induced TNFα; Mus musculus, concentration 11.0 μM, read-out: Inhibition rate (%)) was 8 ± 1.6%. For the same compound, the inhibition at 33 µM (LPS-induced TNFα; Mus musculus, concentration 33.0 μM, read-out: Inhibition rate (%)) was 30.6 ± 1.4% and the inhibition at 100 µM (LPS-induced TNFα; Mus musculus, concentration 100 μM, read-out: Inhibition rate (%)) was 35.4%.

`Cc1ccc(S(=O)(=O)N[C@@H](Cc2ccccc2)C(=O)CCl)cc1` [TPCK, N-p-tosyl-1-phenylalanine chloromethyl ketone, reference compound] was tested, and the “Inhibition rate (%)” value (LPS-induced TNFα; concentration 100 μM) was 60.6%.
